The values below come from PMC5218480 (PLoS ONE, 2017).

Molecules are shown by their SMILES.

The assay has as its system MV-4-11 cells. Kind of assay: Gene expression microarray analysis (Affymetrix PrimeView) and GSEA. It counts as cell-based, human. Further details: RFU PODN (11730768_x_at) / Fold change /veh PODN (11730768_x_at) / RFU LINC00158 (11744669_a_at) / Fold change /veh LINC00158 (11744669_a_at) / RFU DUSP10 (11751237_a_at) / Fold change /veh DUSP10 (11751237_a_at) / RFU ID3 (11757404_x_at) / Fold change /veh ID3 (11757404_x_at) / RFU PLEKHG5 (11737974_s_at) / Fold change /veh PLEKHG5 (11737974_s_at) / RFU LRRC4B (11730491_at) / Fold change /veh LRRC4B (11730491_at) / RFU GIMAP4 (11747438_a_at) / Fold change /veh GIMAP4 (11747438_a_at) / RFU KRT8 (11758183_x_at) / Fold change /veh KRT8 (11758183_x_at) / RFU CNN1 (11734310_a_at) / Fold change /veh CNN1 (11734310_a_at) / RFU VPS37D (11726825_at) / Fold change /veh VPS37D (11726825_at) / RFU C10orf10 (11716522_x_at) / Fold change /veh C10orf10 (11716522_x_at) / RFU KIR2DL2 /// KIR2DL4 /// KIR2DL5A /// KIR2DL5B /// KIR2DS1 /// KIR2DS2 /// KIR2DS3 /// KIR2DS4 /// KIR3DL3 /// KIR3DL3 /// KIR3DS1 (11738374_at) / Fold change /veh KIR2DL2 /// KIR2DL4 /// KIR2DL5A /// KIR2DL5B /// KIR2DS1 /// KIR2DS2 /// KIR2DS3 /// KIR2DS4 /// KIR3DL3 /// KIR3DL3 /// KIR3DS1 (11738374_at) / RFU C1QL1 (11718748_at) / Fold change /veh C1QL1 (11718748_at) / RFU TMPRSS4 (11747572_a_at) / Fold change /veh TMPRSS4 (11747572_a_at) / RFU HAMP (11756126_x_at) / Fold change /veh HAMP (11756126_x_at) / RFU RNFT2 (11725882_a_at) / Fold change /veh RNFT2 (11725882_a_at) / RFU NR4A2 (11747474_a_at) / Fold change /veh NR4A2 (11747474_a_at) / RFU ABCC12 (11746883_a_at) / Fold change /veh ABCC12 (11746883_a_at) / RFU TMEM136 (11760407_x_at) / Fold change /veh TMEM136 (11760407_x_at) / RFU CLDN22 /// WWC2 (11732394_at) / Fold change /veh CLDN22 /// WWC2 (11732394_at) / RFU HLA-DPB1 (11760878_x_at) / Fold change /veh HLA-DPB1 (11760878_x_at) / RFU SPINT1 (11716480_a_at) / Fold change /veh SPINT1 (11716480_a_at) / RFU GAP43 (11754022_s_at) / Fold change /veh GAP43 (11754022_s_at) / RFU A4GNT (11735810_at) / Fold change /veh A4GNT (11735810_at) / RFU PRB3 (11715151_x_at) / Fold change /veh PRB3 (11715151_x_at) / RFU TUBB4B (11761932_at) / Fold change /veh TUBB4B (11761932_at) / RFU CAPN14 (11732068_a_at) / Fold change /veh CAPN14 (11732068_a_at) / RFU TMCC2 (11721928_a_at) / Fold change /veh TMCC2 (11721928_a_at) / RFU IRGQ (11745062_a_at) / Fold change /veh IRGQ (11745062_a_at) / RFU FAM174B (11720279_a_at) / Fold change /veh FAM174B (11720279_a_at) / RFU TMPRSS4 (11748680_a_at) / Fold change /veh TMPRSS4 (11748680_a_at) / RFU FAM212B (11763350_a_at) / Fold change /veh FAM212B (11763350_a_at) / RFU PLEKHG5 (11743358_a_at) / Fold change /veh PLEKHG5 (11743358_a_at) / RFU ZSCAN30 (11745921_a_at) / Fold change /veh ZSCAN30 (11745921_a_at) / RFU CMKLR1 (11741424_a_at) / Fold change /veh CMKLR1 (11741424_a_at) / RFU LOC101060620 /// MAPK8IP1 (11723275_at) / Fold change /veh LOC101060620 /// MAPK8IP1 (11723275_at) / RFU SPTSSB (11747773_x_at) / Fold change /veh SPTSSB (11747773_x_at) / RFU PRSS12 (11739890_at) / Fold change /veh PRSS12 (11739890_at) / RFU BIN1 (11741810_x_at) / Fold change /veh BIN1 (11741810_x_at) / RFU WNT11 (11732464_a_at) / Fold change /veh WNT11 (11732464_a_at) / RFU C10orf10 (11716521_a_at) / Fold change /veh C10orf10 (11716521_a_at) / RFU C5orf56 (11738089_at) / Fold change /veh C5orf56 (11738089_at) / RFU CYB561 (11721691_x_at) / Fold change /veh CYB561 (11721691_x_at) / RFU ANKRD19P (11752326_a_at) / Fold change /veh ANKRD19P (11752326_a_at) / RFU OR2T12 /// OR2T33 /// OR2T8 (11738714_s_at) / Fold change /veh OR2T12 /// OR2T33 /// OR2T8 (11738714_s_at) / RFU VCAN (11748164_a_at) / Fold change /veh VCAN (11748164_a_at) / RFU JSRP1 (11732532_at) / Fold change /veh JSRP1 (11732532_at) / RFU KRTAP10-11 (11738290_x_at) / Fold change /veh KRTAP10-11 (11738290_x_at) / RFU MYO3A (11730013_a_at) / Fold change /veh MYO3A (11730013_a_at) / RFU EBF3 (11725865_a_at) / Fold change /veh EBF3 (11725865_a_at) / RFU CAMK2N1 (11719241_x_at) / Fold change /veh CAMK2N1 (11719241_x_at) / RFU C5orf56 (11738088_a_at) / Fold change /veh C5orf56 (11738088_a_at) / RFU OLFML3 (11715873_a_at) / Fold change /veh OLFML3 (11715873_a_at) / RFU LOC100653217 /// NTM (11731650_a_at) / Fold change /veh LOC100653217 /// NTM (11731650_a_at) / RFU MAPK11 (11762145_a_at) / Fold change /veh MAPK11 (11762145_a_at) / RFU FIZ1 (11724087_x_at) / Fold change /veh FIZ1 (11724087_x_at) / RFU OASL (11726364_x_at) / Fold change /veh OASL (11726364_x_at) / RFU SOX15 (11748057_x_at) / Fold change /veh SOX15 (11748057_x_at) / RFU CD79A (11719716_a_at) / Fold change /veh CD79A (11719716_a_at) / RFU HIST1H1D (11736915_at) / Fold change /veh HIST1H1D (11736915_at) / RFU CASKIN2 (11723855_a_at) / Fold change /veh CASKIN2 (11723855_a_at) / RFU LOC730098 (11760151_x_at) / Fold change /veh LOC730098 (11760151_x_at) / RFU OR4N2 (11742367_at) / Fold change /veh OR4N2 (11742367_at) / RFU PRRT2 (11749266_a_at) / Fold change /veh PRRT2 (11749266_a_at) / RFU SNX32 (11753110_a_at) / Fold change /veh SNX32 (11753110_a_at) / RFU CDHR5 (11726645_a_at) / Fold change /veh CDHR5 (11726645_a_at) / RFU RCAN1 (11760418_a_at) / Fold change /veh RCAN1 (11760418_a_at) / RFU FAM167A (11723789_a_at) / Fold change /veh FAM167A (11723789_a_at) / RFU FAM26E (11764081_at) / Fold change /veh FAM26E (11764081_at) / RFU ISYNA1 (11749810_s_at) / Fold change /veh ISYNA1 (11749810_s_at) / RFU ACY1 (11761880_at) / Fold change /veh ACY1 (11761880_at) / RFU 11764098_at / Fold change /veh 11764098_at / RFU SAMD14 (11745864_x_at) / Fold change /veh SAMD14 (11745864_x_at) / RFU NPB (11741838_a_at) / Fold change /veh NPB (11741838_a_at) / RFU TMPRSS6 (11731388_a_at) / Fold change /veh TMPRSS6 (11731388_a_at) / RFU KRTAP10-2 (11738614_at) / Fold change /veh KRTAP10-2 (11738614_at) / RFU ARHGAP8 /// PRR5-ARHGAP8 (11727945_x_at) / Fold change /veh ARHGAP8 /// PRR5-ARHGAP8 (11727945_x_at) / RFU KRTAP5-7 /// NADSYN1 (11734609_at) / Fold change /veh KRTAP5-7 /// NADSYN1 (11734609_at) / RFU RASL12 (11751679_a_at) / Fold change /veh RASL12 (11751679_a_at) / RFU CDKN2B (11736163_a_at) / Fold change /veh CDKN2B (11736163_a_at) / RFU PRF1 (11729649_at) / Fold change /veh PRF1 (11729649_at) / RFU, ZNF638 /// ZNF638-IT1 / Fold change vs veh, ZNF638 /// ZNF638-IT1 / RFU, PANK3 / Fold change vs veh, PANK3 / RFU, SH3YL1 / Fold change vs veh, SH3YL1 / RFU, ZEB2 / Fold change vs veh, ZEB2 / RFU, NRIP1 / Fold change vs veh, NRIP1 / RFU, PTTG1IP / Fold change vs veh, PTTG1IP / RFU, CAPN2 / Fold change vs veh, CAPN2 / RFU, MED14 / Fold change vs veh, MED14 / RFU, SNORA58 / Fold change vs veh, SNORA58 / RFU, C1orf63 / Fold change vs veh, C1orf63 / RFU, LRRFIP1 / Fold change vs veh, LRRFIP1 / RFU, NDUFAF7 / Fold change vs veh, NDUFAF7 / RFU, SLC12A2 / Fold change vs veh, SLC12A2 / RFU, IBTK / Fold change vs veh, IBTK / RFU, ESF1 / Fold change vs veh, ESF1 / Fold change vs veh, TMEM50B / RFU, TAOK1 / Fold change vs veh, TAOK1 / RFU, ACBD3 / Fold change vs veh, ACBD3 / RFU, TMA16 / Fold change vs veh, TMA16 / RFU, RWDD3 / Fold change vs veh, RWDD3 / RFU, BCAT1 / Fold change vs veh, BCAT1 / RFU, EDEM3 / Fold change vs veh, EDEM3 / RFU, TMEM33 / Fold change vs veh, TMEM33 / RFU, WDR75 / Fold change vs veh, WDR75 / RFU, AHCTF1 / Fold change vs veh, AHCTF1 / RFU, TFRC / Fold change vs veh, TFRC / RFU, ZDHHC17 / Fold change vs veh, ZDHHC17 / RFU, NOM1 / Fold change vs veh, NOM1 / RFU, ARL8B / Fold change vs veh, ARL8B / RFU, ZBTB11 / Fold change vs veh, ZBTB11 / RFU, TAMM41 / Fold change vs veh, TAMM41 / RFU, KIAA1704 /// LOC100996395 / Fold change vs veh, KIAA1704 /// LOC100996395 / RFU, ING1 / Fold change vs veh, ING1 / RFU, TRMT61B / Fold change vs veh, TRMT61B / RFU, FUBP3 / Fold change vs veh, FUBP3 / RFU, TP53 / Fold change vs veh, TP53 / RFU, TNKS2 / Fold change vs veh, TNKS2 / RFU, ZFP14 / Fold change vs veh, ZFP14 / RFU, ACTR2 / Fold change vs veh, ACTR2 / RFU, PPP3R1 / Fold change vs veh, PPP3R1 / RFU, PIK3R1 / Fold change vs veh, PIK3R1 / RFU, HNRNPA1 / Fold change vs veh, HNRNPA1 / RFU, RNF170 / Fold change vs veh, RNF170 / RFU, ZNF28 / Fold change vs veh, ZNF28 / RFU, RNGTT / Fold change vs veh, RNGTT / RFU, OGT / Fold change vs veh, OGT / RFU, BRD1 / Fold change vs veh, BRD1 / RFU, MARS / Fold change vs veh, MARS / RFU, ZNF655 / Fold change vs veh, ZNF655 / RFU, FAHD1 / Fold change vs veh, FAHD1 / RFU, BDP1 / Fold change vs veh, BDP1 / RFU, LRRCC1 / Fold change vs veh, LRRCC1 / RFU, ARID1A / Fold change vs veh, ARID1A / RFU, ZNF146 / Fold change vs veh, ZNF146 / RFU, ZNF330 / Fold change vs veh, ZNF330 / RFU, GPN3 / Fold change vs veh, GPN3 / RFU, C9orf123 / Fold change vs veh, C9orf123 / RFU, N4BP2L2 / Fold change vs veh, N4BP2L2 / RFU, ARFIP1 / Fold change vs veh, ARFIP1 / RFU, FAM179B / Fold change vs veh, FAM179B / RFU, BCL10 / Fold change vs veh, BCL10 / RFU, UHRF1BP1L / Fold change vs veh, UHRF1BP1L / RFU, BET1 / Fold change vs veh, BET1 / RFU, CNOT2 / Fold change vs veh, CNOT2 / RFU, ZNF268 / Fold change vs veh, ZNF268 / Fold change vs veh, ZNF507 / RFU, DGCR2 / Fold change vs veh, DGCR2 / RFU, WDSUB1 / Fold change vs veh, WDSUB1 / Fold change vs veh, HSP90B1 /// MIR3652 / RFU, ADSS / Fold change vs veh, ADSS / RFU, GK / Fold change vs veh, GK / RFU, ZNF148 / Fold change vs veh, ZNF148 / RFU, TAF9 / Fold change vs veh, TAF9 / RFU, SLC1A5 / Fold change vs veh, SLC1A5 / RFU, SLMO2 / Fold change vs veh, SLMO2 / RFU, ABCC4 / Fold change vs veh, ABCC4 / RFU, LOC101060439 /// RAP1B / Fold change vs veh, LOC101060439 /// RAP1B / RFU, RFX7 / Fold change vs veh, RFX7 / RFU, GTPBP10 / Fold change vs veh, GTPBP10 / RFU, CNEP1R1 / Fold change vs veh, CNEP1R1 / RFU, BIVM-ERCC5 /// ERCC5 / Fold change vs veh, BIVM-ERCC5 /// ERCC5 / RFU, ILF3 / Fold change vs veh, ILF3 / RFU 11762660_at / Fold change /veh 11762660_at / RFU VCAN (11757783_s_at) / Fold change /veh VCAN (11757783_s_at) / RFU DDX43 (11728927_at) / Fold change /veh DDX43 (11728927_at) / RFU KRT8 (11758188_x_at) / Fold change /veh KRT8 (11758188_x_at) / RFU NKD1 (11759106_at) / Fold change /veh NKD1 (11759106_at) / RFU SRD5A1 (11742802_a_at) / Fold change /veh SRD5A1 (11742802_a_at) / RFU TPSAB1 /// TPSB2 (11721975_s_at) / Fold change /veh TPSAB1 /// TPSB2 (11721975_s_at) / RFU GSTM3 (11746129_a_at) / Fold change /veh GSTM3 (11746129_a_at) / RFU IL23R (11737362_x_at) / Fold change /veh IL23R (11737362_x_at) / RFU TMEM51 (11727254_a_at) / Fold change /veh TMEM51 (11727254_a_at) / RFU PIWIL2 (11732686_x_at) / Fold change /veh PIWIL2 (11732686_x_at) / RFU ORM1 (11744905_x_at) / Fold change /veh ORM1 (11744905_x_at) / RFU CCDC152 (11743942_at) / Fold change /veh CCDC152 (11743942_at) / RFU ECM1 (11717891_a_at) / Fold change /veh ECM1 (11717891_a_at) / RFU IL23R (11748794_a_at) / Fold change /veh IL23R (11748794_a_at) / RFU TNFAIP8L3 (11732012_x_at) / Fold change /veh TNFAIP8L3 (11732012_x_at) / RFU MBOAT4 (11741988_at) / Fold change /veh MBOAT4 (11741988_at) / RFU 11764193_at / Fold change /veh 11764193_at / RFU TMEM53 (11763286_at) / Fold change /veh TMEM53 (11763286_at) / RFU MAGEB2 (11727129_at) / Fold change /veh MAGEB2 (11727129_at) / RFU TMEM200A (11744735_a_at) / Fold change /veh TMEM200A (11744735_a_at) / RFU CCDC152 (11751479_a_at) / Fold change /veh CCDC152 (11751479_a_at) / RFU FAM211A (11726209_a_at) / Fold change /veh FAM211A (11726209_a_at) / RFU RGS16 (11746705_a_at) / Fold change /veh RGS16 (11746705_a_at) / RFU VCAN (11755009_s_at) / Fold change /veh VCAN (11755009_s_at) / RFU RHOB (11743442_s_at) / Fold change /veh RHOB (11743442_s_at) / RFU RGS16 (11720943_a_at) / Fold change /veh RGS16 (11720943_a_at) / RFU RGS16 (11720944_at) / Fold change /veh RGS16 (11720944_at) / RFU, VPS4B / Fold change vs veh, VPS4B / RFU, CREB1 / Fold change vs veh, CREB1 / RFU, DNAJC13 / Fold change vs veh, DNAJC13 / RFU, GNAQ / Fold change vs veh, GNAQ / RFU, CDK5R1 / Fold change vs veh, CDK5R1 / RFU, ZRANB3 / Fold change vs veh, ZRANB3 / RFU, CUL4A / Fold change vs veh, CUL4A / RFU, CCNY / Fold change vs veh, CCNY / RFU, UFL1 / Fold change vs veh, UFL1 / RFU, COG3 / Fold change vs veh, COG3 / RFU, DIAPH2 / Fold change vs veh, DIAPH2 / RFU, SKA2 / Fold change vs veh, SKA2 / RFU, AFF3 / Fold change vs veh, AFF3 / RFU, LMF1 / Fold change vs veh, LMF1 / RFU, IPO11 / Fold change vs veh, IPO11 / RFU, DFFB / Fold change vs veh, DFFB / RFU, FOXP1 / Fold change vs veh, FOXP1 / RFU, CARD8 / Fold change vs veh, CARD8 / RFU, STRN3 / Fold change vs veh, STRN3 / RFU, ADK / Fold change vs veh, ADK / RFU, RASSF2 / Fold change vs veh, RASSF2 / RFU, WIPF1 / Fold change vs veh, WIPF1 / RFU, LARP1B / Fold change vs veh, LARP1B / RFU, RASA1 / Fold change vs veh, RASA1 / RFU, RB1 / Fold change vs veh, RB1 / RFU, PPFIA1 / Fold change vs veh, PPFIA1 / RFU, MAT2A / Fold change vs veh, MAT2A / RFU, CCT5 / Fold change vs veh, CCT5 / RFU, WDR92 / Fold change vs veh, WDR92 / RFU, CUX1 / Fold change vs veh, CUX1 / RFU, TTC7A / Fold change vs veh, TTC7A / RFU, TMEM135 / Fold change vs veh, TMEM135 / RFU, DEPTOR / Fold change vs veh, DEPTOR / RFU, CPM / Fold change vs veh, CPM / RFU, DNAJB6 / Fold change vs veh, DNAJB6 / RFU, CACNA2D3 / Fold change vs veh, CACNA2D3 / RFU, DTX4 / Fold change vs veh, DTX4 / RFU, TFCP2 / Fold change vs veh, TFCP2 / RFU, GMCL1 /// GMCL1P1 / Fold change vs veh, GMCL1 /// GMCL1P1 / RFU, AEBP2 / Fold change vs veh, AEBP2 / RFU, SNHG1 /// SNORD22 /// SNORD25 /// SNORD26 /// SNORD27 /// SNORD28 /// SNORD29 /// SNORD31 / Fold change vs veh, SNHG1 /// SNORD22 /// SNORD25 /// SNORD26 /// SNORD27 /// SNORD28 /// SNORD29 /// SNORD31 / Fold change (Aza/veh), C12orf56 (ProbeSet 11735607_a_at) / Fold change (ACY-1035/veh), C12orf56 (ProbeSet 11735607_a_at) / Fold change (Aza/veh), FGFR1OP (ProbeSet 11751329_s_at) / Fold change (ACY-1035/veh), FGFR1OP (ProbeSet 11751329_s_at) / Fold change (Aza/veh), VPS36 (ProbeSet 11739960_a_at) / Fold change (ACY-1035/veh), VPS36 (ProbeSet 11739960_a_at) / RFU SYPL1 (11715823_x_at) / Fold change /veh SYPL1 (11715823_x_at) / RFU IGFBP7 (11715501_s_at) / Fold change /veh IGFBP7 (11715501_s_at) / RFU REEP3 (11722064_at) / Fold change /veh REEP3 (11722064_at) / RFU IGLL1 (11728026_x_at) / Fold change /veh IGLL1 (11728026_x_at): dose or concentration left out as unconfirmed. As to conditions: ProbeSet 11729384_s_at; LIST D.

Consider `Nc1ncn([C@@H]2O[C@H](CO)[C@@H](O)[C@H]2O)c(=O)n1` [azacitidine], for which the “RFU, CCNY” value worked out at 167.26 RFU.
